Each structure is given as a SMILES string.

The values below come from patent US20200345686A1, “COMPOSITIONS AND METHODS FOR TREATING SKIN AND N[…] DISORDERS” (VCP IP HOLDINGS, LLC, LIMITED LIABILITY COMPANY DELAWARE, priority 2019, published 2020).

The conditions of series [1]: one study; cited from earlier work.
The target in series [2] is cannabinoid receptor type-2 (CB2) (Homo sapiens, UniProt P34972). Conditions: cited from earlier work.
For series [3] the following is noted: mice; cited from earlier work.
Series [4] in a line: Tape-strip test of THC absorbance into pig skin after topical application of salve. The format is in vitro ADME. Here is the method: A composition as described herein, e.g., in the form of a salve containing 1000 mg THC and carrier components was tested for its absorbance into skin following topical application to the skin of an animal (pig).
The absorbance testing procedure was performed as follows: the salve/lotion composition was applied topically to an area of the skin of a pig. Approximately 500 mg of the salve/lotion composition was applied to the area of skin using a gloved finger. The composition was applied to the skin by rubbing in a circular motion. The applied composition (salve composition) remained on the skin for different time periods, i.e., 10 minutes, 30 minutes, or 60 minutes, to allow the components of the composition, e.g., THC, to absorb into the skin. At the end of each time period, the area of the skin on which the composition had been applied was contacted with adhesive strips to test for the presence of residual cannabinoids, using an adhesive test tape (strip) method, e.g., as known in the art. (See, e.g., A. L. M. Ruela et al., 2016, BJPS, Vol. 52, No. 3:527-544; S. Zsiko et al., 2019, Sci. Pharm. (Review), Vol. 87, No. 19; doi:10.3390/scipharm87030019, 21 pages). In general, the tape-stripping technique is employed for analysis of penetration of an active or component (e.g., THC) into the stratum corneum. The procedure may be applied using an animal skin model, such as pig skin, e.g., a portion of skin removed from the animal. The procedure involved the sequence removal of cell layers of the stratum corneum by application of pieces (strips) of adhesive tape. The residues of the applied composition or formulation were removed from the skin surface, and the adhesive strip was applied by using pressure to ensure its adhesion to the skin. […]
FIG. 1 illustrates the results of the time course experiment following absorption testing 10 minutes after the composition comprising 1000 mg THC+carrier ingredients was applied to the animal's skin. Absorption or permeation of THC (ppm) per layer of skin (20 skin layers deep) was assessed using adhesive test strips. […]

The conditions of series [5]: mammals; cited from earlier work.

Chain of cannabinoid receptor type-2 (CB2) (P34972 whole entry, species assumed): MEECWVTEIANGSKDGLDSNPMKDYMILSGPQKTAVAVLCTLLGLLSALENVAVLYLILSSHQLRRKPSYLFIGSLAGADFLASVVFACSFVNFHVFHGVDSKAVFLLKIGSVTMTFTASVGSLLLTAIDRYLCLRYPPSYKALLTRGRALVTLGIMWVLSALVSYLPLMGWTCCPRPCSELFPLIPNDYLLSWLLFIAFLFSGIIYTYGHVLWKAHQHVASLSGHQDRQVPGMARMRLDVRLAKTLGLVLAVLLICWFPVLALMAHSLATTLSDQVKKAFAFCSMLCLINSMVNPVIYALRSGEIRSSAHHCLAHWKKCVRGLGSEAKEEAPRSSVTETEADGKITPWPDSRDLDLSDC

Regarding `C=C(C)[C@@H]1CCC(C)=C[C@H]1c1c(O)cc(CCCCC)cc1O` [CBD, (−)-trans-cannabidiol], in series [1], the “relieving pain and reducing inflammation compared with aspirin” value is on record as “more effective than aspirin”.
On to `C=C1CCC=C(C)CCC2C1CC2(C)C` (stereo not shown) [Caryophyllene, 4,11,11-trimethyl-8-methylene-bicyclo[7.2.0]undec-4-ene], for which the “activity at CB2” value in series [2] was “selective agonist”. The anti-inflammatory effects entry in series [3] was “significant cannabi-mimetic, anti-inflammatory effects”.
`CCCCCc1cc(O)c2c(c1)OC(C)(C)[C@@H]1CCC(C)=C[C@@H]21` [THC, Δ^9-tetrahydrocannabinol]: the “presence of cannabinoids in the skin layers beneath the stratum corneum” value in series [4] (5 ppm limit of quantification (LOQ), pig skin tape strips) is on record as “inability to detect the presence of cannabinoids”. For the same molecule, the “location of THC component in skin” value in series [4] (60 minutes after topical application, salve containing 1000 mg THC + carrier, pig skin) is recorded as “the majority of the THC component had entered the stratum corneum”. Moreover, the “time after topical application at which absorption or penetration of THC into the skin was highest” value in series [4] (salve containing 1000 mg THC + carrier, approx. 500 mg applied to pig skin, 20 tape strips, HPLC) fell in the range of 10 to 30 min.
Turning to `C/C1=C\CC/C(C)=C/CC(C)(C)/C=C/C1` [Humulene], the anti-inflammatory activity entry in series [5] was “effects similar to those of dexamethasone”.
